This assay concerns the target T1, Type-2 angiotensin II receptor (Homo sapiens, UniProt P50052).
T1 sequence (P50052 whole entry): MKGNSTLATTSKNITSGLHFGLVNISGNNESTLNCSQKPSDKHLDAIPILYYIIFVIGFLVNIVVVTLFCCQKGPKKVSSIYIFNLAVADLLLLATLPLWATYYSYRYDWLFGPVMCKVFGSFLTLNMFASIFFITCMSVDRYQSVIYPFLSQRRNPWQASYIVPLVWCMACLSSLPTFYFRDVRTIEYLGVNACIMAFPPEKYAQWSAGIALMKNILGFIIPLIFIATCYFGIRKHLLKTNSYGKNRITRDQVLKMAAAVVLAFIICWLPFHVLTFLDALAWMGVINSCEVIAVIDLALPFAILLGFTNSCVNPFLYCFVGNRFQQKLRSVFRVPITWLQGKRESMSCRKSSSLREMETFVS
Description: Receptor Binding Assay: 120 μL membrane ([…]) was incubated with 15 μL of [125I]-CGP42112A and 15 μL of compound at RT for 1.5 hrs. The binding reaction was stopped by rapid filtration through Unifilter GF/C plates (presoaked in 0.3% (v:v) BSA). Plate was washed three times with ice cold wash buffer. The filtration plates were dried at 37° C. overnight. 50 μL of scintillation cocktail was added to each well. Radioactivity was determined using MicroBetaTriluxmicroplate scintillation counter.

For the compound `CN(CCCc1ccc(F)cc1)[C@H]1C[C@@H](c2nnn[nH]2)N(C(=O)C(c2ccccc2)c2ccccc2)C1`, the IC50 was 0.00352 µM.

`O=C(O)[C@@H]1C[C@H](NC(=O)N(c2ccccc2)c2ccccc2)CN1C(=O)C(c1ccccc1)c1ccccc1`: the IC50 stood at 3.36 µM. Consider `CN(CCc1ccccc1)[C@H]1C[C@@H](C(=O)O)N(C(=O)C(c2ccccc2)c2ccccc2)C1`, for which the IC50 worked out at 0.384 µM.

As to `O=C(C(c1ccccc1)c1ccccc1)N1C[C@H](OCCCc2ccccc2)[C@H]1CO`, the IC50 is 2.05 µM.

Regarding `CC(=O)N(CCCc1ccccc1)[C@H]1C[C@@H](C(=O)O)N(C(=O)C(c2ccccc2)c2ccccc2)C1`, the IC50 turned out to be 0.24 µM.

Consider `O=C(C(c1ccccc1)c1ccccc1)N1C[C@@H](OCCCc2ccccc2)[C@H]1CO`, for which the IC50 came out at 0.65 µM.

One may read the IC50 as the concentration that inhibits the measured activity by half.
